Experimental data reported in patent US20250234864A1 (priority 2022, published 2025).
“And” between values parts separate entries of the source, which are not always exact repeats. Equal values may be shown once. Read-outs that look alike come from different tables or passages of the source.

What was measured:
Pyricularia oryzae [1] = assay: whole plant or invertebrate; format: in vivo; settings: rice seedlings, spray before inoculation; for pest or weed control at 0.01 ppm: read-out: Control Efficacy, spray concentration 0.01 ppm; for pest or weed control at 1 ppm: read-out: Control Efficacy, spray concentration 1 ppm; for pest or weed control at 25 ppm: read-out: Control Efficacy, spray concentration 25 ppm; for pest or weed control at 100 ppm: read-out: Control Efficacy, spray concentration 100 ppm
Pyricularia oryzae [2] = format: in vivo; settings: spray after lesions on rice seedlings, two natural infections

Compound: CC(C1CC1)C(O)(Cn1cncn1)c1ccc(Cl)cc1 (centres unmarked) [Ciproconazole]
- Control Efficacy (Pyricularia oryzae [1]; spray concentration 10 ppm): 11

Compound: CC1COC(Cn2cncn2)(c2ccc(Oc3ccc(Cl)cc3)cc2Cl)O1 (centres unmarked) [Diphenoconazole]
- Control Efficacy (Pyricularia oryzae [1]; spray concentration 50 ppm): 62
- Control Efficacy (Pyricularia oryzae [1]; spray concentration 100 ppm): 86

Compound: CO/N=C(/C1=NOCCO1)c1ccccc1Oc1ncnc(Oc2ccccc2Cl)c1F [Fluoxastrobin]
- pest or weed control at 0.01 ppm (Pyricularia oryzae [1]; Pyricularia oryzae): 22%
- pest or weed control at 1 ppm (Pyricularia oryzae [1]; Pyricularia oryzae): 93%

Compound: CCCCC(O)(Cn1cncn1)c1ccc(Cl)cc1Cl (centres unmarked) [Hexaconazole]
- pest or weed control at 25 ppm (Pyricularia oryzae [1]; Pyricularia oryzae): 55%
- pest or weed control at 100 ppm (Pyricularia oryzae [1]; Pyricularia oryzae): 86%

Compound: Cc1nc2c(F)c(F)ccc2cc1Oc1cccc(F)c1C(C)(C)O [Ipflufenoquin]
- Control Efficacy (Pyricularia oryzae [1]; spray concentration 0.01 ppm): 0
- Control Efficacy (Pyricularia oryzae [1]; spray concentration 0.1 ppm): 76

Compound: CNC(=O)C(OC)c1ccccc1COc1cc(C)ccc1C (centres unmarked) [Mandestrobin]
- Control Efficacy (Pyricularia oryzae [1]; spray concentration 0.1 ppm): 0

Compound: CC(O)(Cn1cncn1)c1ccc(Oc2ccc(Cl)cc2)cc1C(F)(F)F (centres unmarked) [Mefentrifluconazole]
- Control Efficacy (Pyricularia oryzae [1]; spray concentration 25 ppm): 35
- Control Efficacy (Pyricularia oryzae [1]; spray concentration 100 ppm): 44

Compound: Cc1nn(C)c(F)c1C(=O)Nc1ccccc1C(C)CC(C)C (centres unmarked) [Penflufen]
- Control Efficacy (Pyricularia oryzae [1]; spray concentration 1 ppm): 11

Compound: CO/C=C(/C(=O)OC)c1ccccc1COc1cccc(C(F)(F)F)n1 [Picoxystrobin]
- Control Efficacy (Pyricularia oryzae [1]; spray concentration 0.01 ppm): 22
- Control Efficacy (Pyricularia oryzae [1]; spray concentration 0.1 ppm): 68

Compound: CCCC1COC(Cn2cncn2)(c2ccc(Cl)cc2Cl)O1 (centres unmarked) [Propiconazole]
- pest or weed control at 100 ppm (Pyricularia oryzae [1]; Pyricularia oryzae): 72%
- Control Efficacy (Pyricularia oryzae [2]; spray concentration 52 ppm): 55

Compound: OC(Cc1ccccc1Cl)(Cn1nc[nH]c1=S)C1(Cl)CC1 (centres unmarked) [Prothioconazole]
- pest or weed control at 1 ppm (Pyricularia oryzae [1]; Pyricularia oryzae): 39%
- pest or weed control at 25 ppm (Pyricularia oryzae [1]; Pyricularia oryzae): 82%
- pest or weed control at 100 ppm (Pyricularia oryzae [1]; Pyricularia oryzae): 95%

Compound: COC(=O)N(OC)c1ccccc1COc1ccn(-c2ccc(Cl)cc2)n1 [Pyraclostrobin]
- pest or weed control at 0.01 ppm (Pyricularia oryzae [1]; Pyricularia oryzae): 44%
- pest or weed control at 0.1 ppm (Pyricularia oryzae [1]; Pyricularia oryzae, read-out: Control Efficacy, spray concentration 0.1 ppm): 64%

Compound: O=C(Nc1ccccc1-c1ccc(F)c(F)c1)c1nccnc1C(F)(F)F [Pyraziflumid]
- Control Efficacy (Pyricularia oryzae [1]; spray concentration 10 ppm): 0
- Control Efficacy (Pyricularia oryzae [1]; spray concentration 100 ppm): 56

Compound: O=C1CCc2cccc3c2N1CC3 [Pyroquilon]
- pest or weed control at 100 ppm (Pyricularia oryzae [1]; Pyricularia oryzae): 22%

Compound: CC(C)(C)C(O)(CCc1ccc(Cl)cc1)Cn1cncn1 (centres unmarked) [Tebuconazole]
- pest or weed control at 10 ppm (Pyricularia oryzae [1]; Pyricularia oryzae, read-out: Control Efficacy, spray concentration 10 ppm): 58%
- Control Efficacy (Pyricularia oryzae [2]; spray concentration 52 ppm): 63

Compound: CC(=O)Oc1c(C)c(C)nc2c(F)cc(C(C)(C)C)cc12 [Tebufloquin]
- Control Efficacy (Pyricularia oryzae [1]; spray concentration 10 ppm): 84 and 76 and 86 and 51 and 48
- Control Efficacy (Pyricularia oryzae [1]; spray concentration 20 ppm): 97 and 90 and 70
- Control Efficacy (Pyricularia oryzae [2]; spray concentration 83 ppm, lesions on uppermost unfolded leaf of 50 seedlings): 80 and 81

Compound: CON=C(C(=O)OC)c1ccccc1CON=C(C)c1cccc(C(F)(F)F)c1 [Trifloxystrobin]
- pest or weed control at 0.01 ppm (Pyricularia oryzae [1]; Pyricularia oryzae): 75%

Compound: Inpyrfluxam
- Control Efficacy (Pyricularia oryzae [1]; spray concentration 100 ppm): 74
